The values that follow come from paper PMC4643876, “Picomolar Inhibition of Plasmepsin V, an Essential Malaria Protease, Achieved Exploiting the Prime Region” (PLoS ONE, 2015).

Like-named read-outs stand apart in the source and are kept apart here. Bounds are passed on as bounds.

The target in this test is T1, Plasmepsin V (PmV) (Plasmodium falciparum, UniProt Q8I6Z5).
T1 construct: PmV was purified directly from parasites; made in house
In words: PmV inhibition, fluorimetric PExEl cleavage assay. Format: biochemical. As for the experimental part: Saponin was added to culture to a final 0.05%; parasites were recovered via centrifugation at 4°C after 5 min of incubation on ice; parasite pellets were then washed twice in cold PBS and either immediately lysed or stored at -80°C until lysis. Parasites were lysed via three pulses of ultra-sonication of 10 sec duration, in PBS containing 0.5% Triton-X100 (TX-100). […] Quick washes of the resin were performed either in batches, or over columns, to remove unbound cellular material (four with ice-cold 0.5% TX-100 in PBS and a final one with cold PBS). Resin-bound PmV was stored in PBS at 4°C and used within 2–3 weeks, larger batches had Glycerol added to them, up to 10%, and were stored at -20°C for up to 5 months. […] Quality and purity of PmV batches were routinely confirmed by protein electrophoresis. Quantification of PmV was performed via densitometry analysis of stained protein SDS-PAGE gels relative to BSA standard curves.
PExEl cleavage activity was monitored by fluorimetric measurement of PExEl cleavage, as previously reported. […] PmV activity was performed at 37°C in 50 mM Tris-Maleate, pH 6.5, 50 mM NaCl, 0.05% TX-100, 2 mM DTT. Assays were routinely conducted in triplicate. Bead-bound enzyme was added to the reaction using ‘end-cut’ micropipette tips in order to facilitate sampling the suspension.
Inhibitory activities were measured in the presence of a substrate concentration of 3 μM by serial dilution of each compound in triplicates. […] Titration curves of the inhibitors were routinely composed of eleven points from 10 μM to 0.1 pM. PmV concentration was kept in the order of low picomolar (≤10 pM). […] Analysis of the half inhibitory activity (IC50) was performed by sigmoidal interpolation of the starting velocities of the hydrolytic reactions for each condition. Starting velocities were calculated on the initial linear range of the product progression curves. […] Data are presented with error bars indicating the standard deviation of three independent activity curves.

Setting [1] is: 3 μM HRPII-PExEl substrate, averages of not less than three inhibition curves, read-out: IC50.
Where [2] appears, read: 3 μM substrate, tested up to 10 μM, read-out: IC50.
Where [3] appears, read: Activity, read-out: pIC50 (converted).

T1 sequence (Q8I6Z5 whole entry): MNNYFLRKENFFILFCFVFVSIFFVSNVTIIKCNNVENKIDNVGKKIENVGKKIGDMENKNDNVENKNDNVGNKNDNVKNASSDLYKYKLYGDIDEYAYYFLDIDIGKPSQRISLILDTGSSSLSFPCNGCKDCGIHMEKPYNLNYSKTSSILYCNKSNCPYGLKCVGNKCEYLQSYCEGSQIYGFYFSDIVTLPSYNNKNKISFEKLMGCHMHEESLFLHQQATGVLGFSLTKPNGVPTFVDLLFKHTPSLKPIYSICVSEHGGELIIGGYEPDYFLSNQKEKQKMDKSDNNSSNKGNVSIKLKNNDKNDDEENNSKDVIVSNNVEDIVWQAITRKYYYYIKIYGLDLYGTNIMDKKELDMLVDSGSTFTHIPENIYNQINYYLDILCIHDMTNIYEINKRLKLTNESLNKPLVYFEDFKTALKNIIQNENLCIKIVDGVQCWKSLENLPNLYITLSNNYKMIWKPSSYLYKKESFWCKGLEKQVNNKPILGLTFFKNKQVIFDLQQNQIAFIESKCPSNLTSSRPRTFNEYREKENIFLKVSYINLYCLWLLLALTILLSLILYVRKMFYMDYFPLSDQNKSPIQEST

As to `CC(C)C[C@H](NC(=O)[C@@H](N)CCCNC(=N)N)C(=O)N[C@@H](CC(C)C)[C@@H](O)CN[C@@H](C)C(=O)N[C@@H](CCC(N)=O)C(=O)O` [Compound 24a], the Ki (commonly the equilibrium dissociation constant of an inhibitor or competing ligand from its target) was determined as 8.9 nM. For the same molecule, the IC50 under setting [1] worked out at 16.6 nM.

Consider `CC(C)C[C@H](NC(=O)[C@@H](N)CCCNC(=N)N)C(=O)N[C@@H](CC(C)C)C(O)CN[C@@H](C)C(=O)N[C@@H](CCC(N)=O)C(N)=O` (mixture of isomers) [Compound 23], for which the “IC50 increase compared to Compound 8a” value is listed as 2.5 fold and affinity was put at a Ki of 6.94 nM. Further, the IC50 under setting [1] came to 12.9 nM. For `CC(C)C[C@H](NC(=O)[C@@H](N)Cc1c[nH]c2ccccc12)C(=O)N[C@@H](CC(C)C)C(O)CN[C@@H](C)C(=O)N[C@@H](CCC(=O)O)C(N)=O` (mixture of isomers) [Compound 31], the IC50 under setting [2] is greater than 10000 nM.

For `CC(C)C[C@H](NC(=O)[C@@H](N)CCCNC(=N)N)C(=O)N[C@@H](CC(C)C)C(O)CN[C@@H](C)C(=O)NCC(=O)O` (mixture of isomers) [Compound 25], the affinity corresponds to a Ki of 8.03 nM. The IC50 under setting [1] is 15 nM. For the molecule `CC(C)C[C@H](NC(=O)[C@@H](N)CCCCN)C(=O)N[C@@H](CC(C)C)[C@@H](O)CN[C@@H](Cc1ccc(O)cc1)C(=O)N[C@@H](CCC(=O)O)C(N)=O` [Compound 30a], the IC50 under setting [2] is greater than 10000 nM. Turning to `CC(C)C[C@H](NC(=O)[C@@H](N)CCCNC(=N)N)C(=O)N[C@@H](CC(C)C)[C@@H](O)CN[C@@H](Cc1ccc(O)cc1)C(=O)N[C@@H](CCC(=O)O)C(N)=O` [Compound 2a], the affinity, expressed as Ki, was 0.98 nM. Moreover, the IC50 under setting [1] was 1.83 nM. Consider `CCCCCCCC(=O)N[C@@H](CCCNC(=N)N)C(=O)N[C@@H](CC(C)C)C(=O)N[C@@H](CC(C)C)[C@H](O)CN[C@@H](Cc1ccc(O)cc1)C(=O)N[C@@H](CCC(=O)O)C(=O)N[C@@H](C)C(N)=O` [LG63B_R], for which the IC50 is 1.57 nM (Activity, read-out: IC50) and 1.58 nM under setting [3]. With `CC(C)C[C@H](NC(=O)[C@@H](N)CCCNC(=N)N)C(=O)N[C@@H](CC(C)C)[C@H](O)CN[C@@H](Cc1ccc(O)cc1)C(=O)N[C@@H](CCC(=O)O)C(N)=O` [Compound 2b], the affinity, expressed as Ki, was 17.3 nM. Further, the IC50 under setting [1] worked out at 32.2 nM.

The molecule `CC(C)C[C@H](NC(=O)[C@@H](N)CCCNC(=N)N)C(=O)N[C@@H](CC(C)C)C(O)CN[C@@H](C)C(=O)N[C@@H](CCC(=O)O)C(N)=O` (mixture of isomers) [Compound 22] gave an inhibition constant (Ki) of 0.22 nM. The IC50 under setting [1] stood at 0.42 nM. For `CC(C)C[C@H](NC(=O)[C@@H](N)CCCNC(=N)N)C(=O)N[C@@H](CC(C)C)[C@@H](O)CN[C@@H](Cc1ccc(O)cc1)C(=O)N[C@@H](CCC(N)=O)C(=O)O` [Compound 26a], in that order: 9.35 nM and 17.4 nM. The matching figures for `CC(C)C[C@H](NC(=O)[C@@H](N)CCCNC(=N)N)C(=O)N[C@@H](CC(C)C)[C@@H](O)CN[C@@H](Cc1ccc(O)cc1)C(=O)NCC(=O)O` [Compound 27a]: 1.86 nM and 3.47 nM.

Molecule `CC(C)C[C@H](NC(=O)[C@@H](N)Cc1ccc(O)cc1)C(=O)N[C@@H](CC(C)C)[C@@H](O)CN[C@@H](C)C(=O)N[C@@H](CCC(=O)O)C(=O)N[C@@H](C)C(N)=O` [Compound 3a] yielded a Ki of 2510 nM. For the same molecule, under setting [1], the IC50 was 4680 nM. For `CC(C)C[C@H](NC(=O)[C@@H](N)Cc1c[nH]cn1)C(=O)N[C@@H](CC(C)C)[C@@H](O)CN[C@@H](Cc1ccc(O)cc1)C(=O)N[C@@H](CCC(N)=O)C(=O)N[C@@H](C)C(N)=O` [Compound 20a], in that order: 4410 nM and 8200 nM. With `CC(C)C[C@H](NC(=O)[C@@H](N)CCCNC(=N)N)C(=O)N[C@@H](CC(C)C)[C@@H](O)CN[C@@H](Cc1ccc(O)cc1)C(=O)N[C@@H](CCC(=O)O)C(=O)N[C@@H](C)C(N)=O` [Compound 7a], the “IC50 increase compared to Compound 1” value is reported as 4–7 fold and the Ki worked out at 0.74 nM. For the same molecule, the IC50 under setting [1] came out at 1.38 nM.

Consider `CC(C)C[C@H](NC(=O)[C@@H](N)Cc1c[nH]c2ccccc12)C(=O)N[C@@H](CC(C)C)[C@@H](O)CN[C@H](C(=O)N[C@@H](CCC(=O)O)C(N)=O)[C@@H](C)O` [Compound 34a], for which the IC50 under setting [2] is greater than 10000 nM. In turn, `Cc1cccc(C)c1OCC(=O)N[C@@H](Cc1ccccc1)[C@@H](O)C[C@H](Cc1ccccc1)NC(=O)[C@H](C(C)C)N1CCCNC1=O` [Lopinavir, reference compound] showed a Ki of 11000 nM. Further, under setting [1], the IC50 is 20600 nM. For `CC(C)C[C@H](NC(=O)[C@@H](N)Cc1c[nH]cn1)C(=O)N[C@@H](CC(C)C)[C@@H](O)CN[C@@H](C)C(=O)N[C@@H](CCC(=O)O)C(=O)N[C@@H](C)C(N)=O` [Compound 14a], in that order: 910 nM and 1690 nM. For the molecule `CC(C)C[C@H](NC(=O)[C@@H](N)CCCNC(=N)N)C(=O)N[C@@H](CC(C)C)C(O)CN[C@@H](C)C(=O)N[C@@H](CCC(=O)O)C(=O)N[C@@H](C)C(N)=O` (stereo partly shown) [LG20_Mix], the IC50 by setting is: (Activity, read-out: IC50) 0.37 nM; under setting [3], 0.363 nM.

As to `CC(C)C[C@H](NC(=O)[C@@H](N)CCCCN)C(=O)N[C@@H](CC(C)C)C(O)CN[C@@H](C)C(=O)N[C@@H](CCC(N)=O)C(=O)N[C@@H](C)C(N)=O` (mixture of isomers) [Compound 18], under setting [1], the IC50 was greater than 10000 nM. In the case of `CC(C)C[C@H](NC(=O)[C@@H](N)CCCCN)C(=O)N[C@@H](CC(C)C)[C@@H](O)CN[C@@H](C)C(=O)N[C@@H](CCC(=O)O)C(N)=O` [LG61A_S], the IC50 (Activity, read-out: IC50) was found to be 8180 nM and the IC50 under setting [3] was 8130 nM. On to `CC(C)C[C@H](NC(=O)[C@@H](N)CCCNC(=N)N)C(=O)N[C@@H](CC(C)C)[C@H](O)CN[C@@H](Cc1ccc(O)cc1)C(=O)NCC(=O)O` [LG69B_R], for which the IC50 runs as follows: (Activity, read-out: IC50) 111 nM; under setting [3], 112 nM. As to `CC(C)C[C@H](NC(=O)[C@@H](N)Cc1c[nH]c2ccccc12)C(=O)N[C@@H](CC(C)C)[C@@H](O)CN[C@@H](Cc1ccc(O)cc1)C(=O)N[C@@H](CCC(N)=O)C(=O)N[C@@H](C)C(N)=O` [Compound 21a], the affinity, expressed as Ki, was 673 nM. Also, the IC50 under setting [1] is 1250 nM. As to `CC(C)C[C@H](NC(=O)[C@H](CO)NC(=O)[C@@H](N)CCCNC(=N)N)C(O)CN[C@@H](Cc1ccc(O)cc1)C(=O)N[C@@H](CCC(=O)O)C(=O)N[C@@H](C)C(N)=O` (mixture of isomers) [Compound 12], the “IC50 increase compared to Compound 7a” value was 15 fold and the Ki was 12.4 nM. In addition, the IC50 under setting [1] was found to be 23.1 nM.

`CC(C)C[C@H](NC(=O)[C@H](C)NC(=O)[C@@H](N)CCCNC(=N)N)[C@@H](O)CN[C@@H](Cc1ccc(O)cc1)C(=O)N[C@@H](CCC(=O)O)C(=O)N[C@@H](C)C(N)=O` [Compound 11a]: the “IC50 increase compared to Compound 7a” value is reported as 5 fold and the Ki was found to be 3.3 nM. In addition, the IC50 under setting [1] stood at 6.14 nM. `CC(C)C[C@H](NC(=O)[C@@H](N)Cc1ccc(O)cc1)C(=O)N[C@@H](CC(C)C)[C@H](O)CN[C@@H](C)C(=O)N[C@@H](CCC(=O)O)C(=O)N[C@@H](C)C(N)=O` [Compound 3b]: the Ki came to 6570 nM. In addition, the IC50 under setting [1] was roughly 12200 nM. For `CC(C)C[C@H](NC(=O)[C@@H](N)CCCCN)C(=O)N[C@@H](CC(C)C)[C@@H](O)CN[C@@H](Cc1ccc(O)cc1)C(=O)N[C@@H](CCC(=O)O)C(N)=O` [LG62A_S], the IC50 was 17500 nM (Activity, read-out: IC50) and 17400 nM under setting [3]. As for `CC(C)C[C@H](NC(=O)[C@@H](N)Cc1c[nH]c2ccccc12)C(=O)N[C@@H](CC(C)C)[C@@H](O)CN[C@@H](Cc1ccc(O)cc1)C(=O)N[C@@H](CCC(=O)O)C(N)=O` [Compound 32a], the IC50 under setting [2] is greater than 10000 nM. For `CC(C)C[C@H](NC(=O)[C@@H](N)CCCCN)C(=O)N[C@@H](CC(C)C)[C@@H](O)CN[C@@H](C)C(=O)N[C@@H](CCC(=O)O)C(=O)N[C@@H](C)C(N)=O` [Compound 13a], affinity was put at a Ki of 412 nM. Besides, the IC50 under setting [1] was 767 nM. Also, the IC50 under setting [2] is 770 nM. `CC(C)C[C@H](NC(=O)[C@@H](N)Cc1c[nH]c2ccccc12)C(=O)N[C@@H](CC(C)C)[C@@H](O)CN[C@@H](C)C(=O)N[C@@H](CCC(N)=O)C(=O)N[C@@H](C)C(N)=O` [Compound 19a] displayed a Ki of 2760 nM. Further, the IC50 under setting [1] was 5130 nM. As for `CC(C)C[C@H](NC(=O)[C@@H](N)Cc1c[nH]c2ccccc12)C(=O)N[C@@H](CC(C)C)[C@@H](O)CN[C@@H](CO)C(=O)N[C@@H](CCC(=O)O)C(N)=O` [Compound 33a], under setting [2], the IC50 is greater than 10000 nM. For `CC(C)C[C@H](NC(=O)[C@@H](N)Cc1c[nH]c2ccccc12)C(=O)N[C@@H](CC(C)C)C(O)CN[C@@H](C)C(=O)N[C@@H](CCC(=O)O)C(N)=O` (mixture of isomers) [LG51_Mix], the IC50 is 39500 nM (Activity, read-out: IC50) and 39800 nM under setting [3].
